Laboratory results taken from paper PMC9601927 (Foods, 2022).
Entries after “also recorded” stand apart in the source; their conditions may differ.

Legend:
[1] = tested on: Caco-2 cells; experiment: MTT cell viability assay; format: cell-based
Description: Caco-2 cells were provided by the Cell Bank of the Chinese Academy of Sciences (Shanghai, China). MTT analysis was used to investigate cell viability. In short, Caco-2 cells were incubated with ANC (0.23, 0.69, 2.06, 6.17, 18.52, 55.56, 166.67, or 500 × 10^−3 mg/mL), FA-g-CS (0.09, 0.27, 0.82, 2.47, 7.41, 22.22, 66.67, or 200 × 10^−3 mg/mL), or their respective combinations. Each group was incubated with three multiple wells for 48 h. Subsequently, the chemical medium was replaced with fresh MTT solution for 3 h at 37 °C and the […] was dissolved with DMSO. Then, the optical density (OD) was measured at 570 nm using a PerkinElmer EnVision (PerkinElmer, Waltham, MA, USA). The following Formula (1) was used to calculate cell viability:(1) Cell viability(%)=ODsample−ODblank/ODcontrol−ODblank where ODcontrol, ODsample, and ODblank represent the measurements of the control, sample, and blank, respectively.

[2] = tested on: Caco-2 cells; format: cell-based; conditions: 2.3 × 10^−4 mg/mL ANC, 48 h
Description: Due to cell membrane damage, the intracellular LDH was released into the culture medium. The LDH level was used as an indicator of irreversible cell death. The method used here was based on the spectrophotometric determination at 490 nm of NADH disappearance.
Upon exposure to different concentrations of ANC, FA-g-CS, or their combinations, the culture medium was aspirated and centrifuged at 400× g for 5 min in tubes with a porous matrix to acquire a cell-free supernatant. A measure of 120 microliters of media was mixed with 60 μL of reagent in a 96-well plate, and the absorbance was recorded with PerkinElmer EnVision. The cytotoxicity of these substances was reflected using the following Equation (2):(2) LDH activity(mU/mL)=ODsample−ODblank/ODstandard−ODblank of standard×1000 mU/mL where ODsample, ODblank, ODstandard, and ODblank represent the measurements of the sample, the blank, the standard, and the blank of standard, respectively.

In the case of `OC[C@H]1O[C@@H](Oc2cc3c(O)cc(O)cc3[o+]c2-c2ccc(O)c(O)c2)[C@H](O)[C@@H](O)[C@@H]1O` [ANC, Cyanidin-3-glucoside], the “influence on Caco-2 cells (Figure 1A–C, MTT)” value ([1]; 2.3 × 10^−4 or 6.9 × 10^−4 mg/mL ANC) is reported as “insignificant influence”, the “effect on cell viability (MTT)” value ([1]; ANC concentration lower than 6.17 × 10^−3 mg/mL, 48 h) is reported as “no significant effect” and the “cell cytotoxicity (LDH assay)” value [2] is reported as “negligible increase; also recorded: not toxic”.
